From the NIST ThermoML archive (doi:10.1016/j.jct.2012.01.016)
Several values for one entry are separate records, joined by “and”; a condition that tells them apart may be missing. Identical values can stand only once.

Assay: activity coefficient (dimensionless); of the first substance listed, at infinite dilution; xn = mol fraction of the nth substance listed
Conditions: Liquid, Headspace solid phase microextraction, x1 = 0

## Cc1ccccc1 [toluene] + O=Cc1ccco1
298.15 K
  activity coefficient: 3.72 and 3.46
308.15 K
  activity coefficient: 3.79 and 3.33
318.15 K
  activity coefficient: 5.3 and 3.8

## Cc1ccccc1C [1,2-dimethylbenzene] + O=Cc1ccco1
298.15 K
  activity coefficient: 4.12 and 3.74
308.15 K
  activity coefficient: 4.44 and 3.55
318.15 K
  activity coefficient: 6.77 and 4.61

## C1CCCC1 [cyclopentane] + O=Cc1ccco1
298.15 K
  activity coefficient: 11.6 and 11.4
308.15 K
  activity coefficient: 10.7 and 10.1
318.15 K
  activity coefficient: 10.4 and 9.3

## CCCCC [pentane] + O=Cc1ccco1
298.15 K
  activity coefficient: 20.8 and 20.4
308.15 K
  activity coefficient: 17.9 and 16.9
318.15 K
  activity coefficient: 16.8 and 15

## CCc1ccccc1 [ethylbenzene] + O=Cc1ccco1
298.15 K
  activity coefficient: 4.84 and 4.52
308.15 K
  activity coefficient: 5.02 and 4.35
318.15 K
  activity coefficient: 7.21 and 5.25

## CCCCCCC [heptane] + O=Cc1ccco1
298.15 K
  activity coefficient: 32 and 31.6
308.15 K
  activity coefficient: 30.8 and 29.6
318.15 K
  activity coefficient: 28.3 and 26.4

## CCCCCC [hexane] + O=Cc1ccco1
298.15 K
  activity coefficient: 25.6 and 25.3
308.15 K
  activity coefficient: 23.6 and 22.8
318.15 K
  activity coefficient: 22.2 and 21.2

## C1CCCCC1 [cyclohexane] + O=Cc1ccco1
298.15 K
  activity coefficient: 15.7 and 15.5
308.15 K
  activity coefficient: 13.5 and 12.9
318.15 K
  activity coefficient: 12 and 10.9

## c1ccccc1 [benzene] + O=Cc1ccco1
298.15 K
  activity coefficient: 2.61 and 2.45
308.15 K
  activity coefficient: 2.93 and 2.4
318.15 K
  activity coefficient: 3.87 and 2.89
